Where two headings read alike, the source gives them in different places.
Key:
[1] = system: zymostenol accumulation in EpiSC-derived OPCs (EBP); experiment: GC/MS-based sterol profiling, zymostenol accumulation; assay type: cell-based, mouse; details: 8 doses from 0.15 nM to 333 nM, read-out: mZymo GCMS EC50
Procedure, shortened: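 EpiSC-derived mouse OPCs plated at 100,000 cells/well in N2B27 without growth factors and treated 24 h. Sterols extracted, silylated with BSTFA and measured by GC/MS (EI, full scan), quantified against cholesterol-d7. Zymostenol normalized to levels after 24 h with 100 nM positive control reference.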

[2] = target: human emopamil binding protein and human 7-dehydrocholesterol reductase co-expressing cell membrane (Homo sapiens (Human), UniProt Q15125); experiment: hEBP-DHCR7 radioligand filtration binding assay with [3H]-Compound 118A*; details: radioligand [3H]-Compound 118A*; HEK293 membrane co-expressing hEBP and DHCR7
Chain of human emopamil binding protein and human 7-dehydrocholesterol reductase co-expressing cell membrane (Q15125 whole entry): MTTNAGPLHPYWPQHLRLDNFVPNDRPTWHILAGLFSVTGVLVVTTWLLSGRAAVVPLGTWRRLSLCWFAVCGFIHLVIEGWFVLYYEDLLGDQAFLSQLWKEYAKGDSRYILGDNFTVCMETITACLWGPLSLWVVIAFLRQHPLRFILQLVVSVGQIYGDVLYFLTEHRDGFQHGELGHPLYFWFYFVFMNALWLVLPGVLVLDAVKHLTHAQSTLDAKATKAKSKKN
Procedure, shortened: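 HEK293 membranes transiently co-expressing hEBP and hDHCR7 (10 μg/well) were incubated with [3H]-Compound 118A* (added at 25 nM) and compounds (8 doses, final 0.06–5000 nM, n=2) for 3 h at 22 °C. Bound radioactivity was read after PEI-treated GF/B filtration. IC50 came from a Hill fit of % inhibition and was converted to Ki.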

EpiSC-derived OPCs = experiment: In vitro phenotypic screening of OPCs, MBP high-content imaging; assay type: cell-based, mouse; details: percentage of MBP+ oligodendrocytes, 3 days, 0.5 nM to 1000 nM, read-out: mOPC EC50
Procedure, shortened: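 Mouse EpiSC-derived OPCs seeded without growth factors and exposed 3 days at 37° C. to 8-point doses, 1000 nM to 0.5 nM final. Fixed cells stained for MBP and DAPI; high-content imaging gave percentage MBP+ oligodendrocytes, with EC50 from Hill-equation fit.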

| Structure (SMILES) | EC50 ([1]; Mus musculus, 24 h) [nM] | Ki [2] [nM] | EC50 (EpiSC-derived OPCs; Mus musculus, 72 h) [nM] | EC50 ([1]; 24 hours) [nM] | EC50 (EpiSC-derived OPCs) [nM] |
| --- | --- | --- | --- | --- | --- |
| CC(C)(Cc1ccc(C(F)(F)F)nc1)CN1CCC2(CC1)CS(=O)(=O)C2 [Example 152, 7-(2,2-Dimethyl-3-(6-(trifluoromethyl)pyridin-3-yl)propyl)-2-thia-7-azaspiro[3.5]nonane-2,2-dioxide] | 3.3 | 16 | 11 | – | – |
| CC(Cc1ccc(F)c(F)c1)CN1CCC2(CC1)CS(=O)(=O)C2 (single isomer, unassigned) [212B*, 7-(3-(3,4-Difluorophenyl)-2-methylpropyl)-2-thia-7-azaspiro[3.5]nonane 2,2-dioxide] | – | 10.1 | – | 2.1 | 4 |
| O=S1(=O)CC2(CCN(CCOc3ccc(-c4ccc(C(F)(F)F)nc4)cc3)CC2)C1 [Compound 238, 7-(2-(4-(6-(Trifluoromethyl)pyridin-3-yl)phenoxy)ethyl)-2-thia-7-azaspiro[3.5]nonane 2,2-dioxide] | 2.89 | 14.1 | 13.7 | – | – |
| CC(C)(CN1CCC2(C1)CS(=O)(=O)C2)Oc1ccc(C(F)(F)F)cc1 [Compound 120, 6-(2-Methyl-2-(4-(trifluoromethyl)phenoxy)propyl)-2-thia-6-azaspiro[3.4]octane 2,2-dioxide] | 4 | 17.7 | 6.4 | – | – |
| C[C@H](Cc1ccc(OC(F)(F)F)cc1)CN1CCC2(C1)CS(=O)(=O)C2 (single isomer, unassigned) [119B*] | 4 | 10.5 | 2.2 | – | – |
| CC(Cc1ccc(F)c(F)c1)CN1CCC2(CC1)CS(=O)(=O)C2 (single isomer, unassigned) [212A*, 7-(3-(3,4-Difluorophenyl)-2-methylpropyl)-2-thia-7-azaspiro[3.5]nonane 2,2-dioxide] | 2.36 | 15.6 | 4.7 | – | – |
| C[C@H](CN1CCC2(CC1)CS(=O)(=O)C2)Oc1ccc(C(F)(F)F)cc1 (single isomer, unassigned) [227B*] | 2.1 | 9.8 | 2.4 | – | – |
| O=S1(=O)CC2(CCN(CCOc3ccc(F)cc3F)CC2)C1 [Example 204, 7-(2-(2,4-Difluorophenoxy)ethyl)-2-thia-7-azaspiro[3.5]nonane 2,2-dioxide] | 2.3 | 28.9 | 6.8 | – | – |
| CC(C)(CN1CCC2(CC1)CS(=O)(=O)C2)Oc1ccc(C(F)(F)F)nc1 [Example 205, 7-(2-Methyl-2-((6-(trifluoromethyl)pyridin-3-yl)oxy)propyl)-2-thia-7-azaspiro[3.5]nonane 2,2-dioxide] | 5.6 | 19.4 | 24 | – | – |
| CC(Cc1ccc(C2(C)CC2)cc1)CN1CCC2(C1)CS(=O)(=O)C2 (racemic) [Compound 111A, 6-(2-Methyl-3-(4-(1-methylcyclopropyl)phenyl)propyl)-2-thia-6-azaspiro[3.4]octane 2,2-dioxide] | 1.3 | 8.57 | 20 | – | – |
| O=S1(=O)CC2(CCN(CCOc3cnc(C4CCCCC4)c(Cl)c3)CC2)C1 [Compound 240, 7-[2-[(5-Chloro-6-cyclohexyl-3-pyridyl)oxy]ethyl]-26-thia-7-azaspiro[3.5]nonane 2,2-dioxide] | 75.5 | 1.96 | 346 | – | – |
| C[C@H](Cc1ccc(C2CCC(F)(F)CC2)c(Cl)c1)CN1CCC2(C1)CS(=O)(=O)C2 (single isomer, unassigned) [117B*] | 0.35 | 9.86 | 0.46 | – | – |
| O=S1(=O)CC2(CCN(CCOc3ccc(C(F)(F)F)cc3)CC2)C1 [Compound 226, 7-(2-(4-(Trifluoromethyl)phenoxy)ethyl)-2-thia-7-azaspiro[3.5]nonane 2,2-dioxide] | 0.88 | 9.29 | 2.2 | – | – |
| CC(C)(Cc1ccc(C(F)(F)F)cc1)CN1CCC2(CC1)CS(=O)(=O)C2 [Example 153, 7-(2,2-Dimethyl-3-(4-(trifluoromethyl)phenyl)propyl)-2-thia-7-azaspiro[3.5]nonane-2,2-dioxide] | 0.87 | 7.23 | 1.6 | – | – |
| O=S1(=O)CCC2(CC1)CN(CCOc1ccc(F)c(Cl)c1)C2 [Compound 219, 2-(2-(3-Chloro-4-fluorophenoxy)ethyl)-7-thia-2-azaspiro[3.5]nonane 7,7-dioxide] | 6.9 | 22.1 | 22.2 | – | – |
| CCC(C)(C)c1ccc(CC(C)CN2CCC3(CCS(=O)(=O)C3)C2)cc1 (stereo not drawn) [Compound 106] | 8.5 | 8.38 | 47 | – | – |
| O=S1(=O)CC2(CCN(CCOc3ccc(C(F)(F)F)c(F)c3)CC2)C1 [Compound 228, 7-(2-(3-Fluoro-4-(trifluoromethyl)phenoxy)ethyl)-2-thia-7-azaspiro[3.5]nonane 2,2-dioxide] | 0.94 | 7.95 | 2.8 | – | – |
| CCC(C)(C)c1ccc(CC(C)CN2CCC3(CC2)CS(=O)(=O)C3)cc1 (racemic) [Compound 110, 7-(2-Methyl-3-(4-(tert-pentyl)phenyl)propyl)-2-thia-7-azaspiro[3.5]nonane 2,2-dioxide] | 22 | 8.44 | 30 | – | – |
| CC(C)(Cc1ccc(C(F)(F)F)nc1)CN1CC[C@]2(CCS(=O)(=O)C2)C1 (single isomer, unassigned) [Compound 148A] | 4.9 | 23.6 | 31 | – | – |
| CC(C)n1nc(C(F)(F)F)cc1C[C@H](C)CN1CCC2(C1)CS(=O)(=O)C2 (single isomer, unassigned) [235B*] | 2.6 | 17.1 | 3.89 | – | – |
| O=S1(=O)CC2(CCN(CCOc3ccc(F)cn3)CC2)C1 [Compound 229, 7-(2-((5-Fluoropyridin-2-yl)oxy)ethyl)-2-thia-7-azaspiro[3.5]nonane 2,2-dioxide] | 34 | 110 | 135 | – | – |
| C[C@@H](Cc1ccc([C@H]2CC[C@](O)(C(F)(F)F)CC2)c(Cl)c1)CN1CCC2(C1)CS(=O)(=O)C2 (stereo in doubt) [116A*, 6-((S)-3-(3-Chloro-4-((1s,4R)-4-hydroxy-4-(trifluoromethyl)cyclohexyl)phenyl)-2-methylpropyl)-2-thia-6-azaspiro[3.4]octane 2,2-dioxide, 6-((R)-3-(3-chloro-4-((1s,4S)-4-hydroxy-4-(trifluoromethyl)cyclohexyl)phenyl)-2-methylpropyl)-2-thia-6-azaspiro[3.4]octane 2,2-dioxide] | – | 10.5 | – | 0.49 | 1.6 |
| CC(C)(CN1CCC2(CC1)CS(=O)(=O)C2)Oc1cccc(C(F)(F)F)c1 [Compound 233, 7-(2-Methyl-2-(3-(trifluoromethyl)phenoxy)propyl)-2-thia-7-azaspiro[3.5]nonane 2,2-dioxide] | 1.5 | 13.2 | 5.7 | – | – |
| C[C@H](Cc1ccc([C@H]2CC[C@](C)(O)CC2)c(Cl)c1)CN1CCC2(C1)CS(=O)(=O)C2 (mixture of isomers) [Compound 123A, 6-((R)-3-(3-Chloro-4-((1r,4R)-4-hydroxy-4-methylcyclohexyl)phenyl)-2-methylpropyl)-2-thia-6-azaspiro[3.4]octane 2,2-dioxide, 6-((S)-3-(3-chloro-4-((1r,4S)-4-hydroxy-4-methylcyclohexyl)phenyl)-2-methylpropyl)-2-thia-6-azaspiro[3.4]octane 2,2-dioxide] | – | 11.9 | – | 14 | 54 |
| O=S1(=O)CC2(CCN(CCCc3ccc(OC(F)(F)F)cc3)CC2)C1 [Compound 213, 7-(3-(4-(Trifluoromethoxy)phenyl)propyl)-2-thia-7-azaspiro[3.5]nonane 2,2-dioxide] | 5 | 12 | 4.7 | – | – |
| CC(C)(Cc1ccc(C(F)(F)F)cn1)CN1CCC2(C1)CS(=O)(=O)C2 [Example 150, 6-(2,2-Dimethyl-3-(5-(trifluoromethyl)pyridin-2-yl)propyl)-2-thia-6-azaspiro[3.4]octane-2,2-dioxide] | 4.9 | 29.9 | 25 | – | – |
| C[C@@H](Cc1ccc(C(F)(F)F)cc1)CN1CC2(CCS(=O)(=O)CC2)C1 (single isomer, unassigned) [232B*] | 5.7 | 12.7 | 15 | – | – |
| CC(C)(CN1CCC2(CC1)CS(=O)(=O)C2)Oc1ccc(C(F)(F)F)c(F)c1 [Example 208, 7-(2-(3-Fluoro-4-(trifluoromethyl)phenoxy)-2-methylpropyl)-2-thia-7-azaspiro[3.5]nonane 2,2-dioxide] | 0.69 | 12.8 | 1.52 | – | – |
| C[C@@H](Cc1ccc(C(F)(F)F)cn1)CN1CCC2(C1)CS(=O)(=O)C2 (single isomer, unassigned) [121A*] | 6.1 | 115 | 23 | – | – |
| CC(C)n1nc(C(F)(F)F)cc1OCCN1CCC2(CC1)CS(=O)(=O)C2 [Compound 239] | 39.8 | 41.9 | 374 | – | – |

Reference: patent US20240400579A1, “SPIROCYCLIC MODULATORS OF CHOLESTEROL BIOSYNTHESIS AND THEIR USE FOR PROMOTING REMYELINATION” (GENENTECH, INC., priority 2021, published 2024)
